According to US12599559B2, “CD1d-ligand-compound-containing liposome preparation having improved pharmacokinetics” (REGiMMUNE Corporation, priority 2020, dated 2026):
Read-outs that look alike come from different tables or passages of the source.

Experiment: pharmacokinetics in human clinical trials, plasma KRN7000 by LC-MS/MS
Format: in vivo
Settings: patients; for Cmax / AUC(0-t): plasma, iv
Protocol: In a phase I clinical trial, RGI-2001-001 was administered intravenously at a dose of 100 μg/kg as KRN7000 within 30 minutes after transplantation to six patients who had received hematopoietic stem cell transplantation. 2 mL of peripheral blood was collected before and 0.5, 1, 2, 4, 6, 8, 24, 48, 72, and 96 hours after transplantation, respectively, and plasma components were collected. KRN7000 in each plasma was separated and identified by liquid chromatography-mass spectrometry (LC-MS/MS).
Similarly, RGI-2001-003 was administered intravenously at a dose of 100 μg/kg as KRN7000 within 30 minutes after transplantation to seven patients who had received hematopoietic stem cell transplantation, and 2 mL of peripheral blood was collected before and 0.5, 2, 4, 6, 8, 24, and 48 hours after transplantation. Plasma components were collected, and plasma KRN7000 was separated and identified by LC-MS/M. These patients were treated with RGI-2001-003 at a dose of 100 μg/kg as KRN7000 intravenously once a week for 5 to 6 consecutive doses. For the administration on day 14, 2 mL of peripheral blood was collected before and 0.5 and 4 hours after administration, respectively, plasma components were collected, and plasma KRZN7000 was separated and identified by LC-MS/M. The NKT response and the number of activated Tregs (Ki-67+%) in patients treated with RGI-2001-003 administration were monitored over time.

[1] = 100 ug/kg, plasma KRN7000 after RGI-2001-003 iv 100 μg/kg weekly, Day 0

concentration at 14 day (100 μg/kg as KRN7000, plasma KRN7000 after RGI-2001-003 iv 100 μg/kg weekly, Day 14, read-out: Cmin): 34.1 ng/mL | half-life [1]: 35.8 h | AUC(0-inf) (100 ug/kg, plasma KRN7000 after RGI-2001-003 iv 100 μg/kg weekly, Day 0, read-out: *Est. AUC0-inf): 42500 ng·h/mL | Cmax [1]: 881 ng/mL | AUC(0-t) (100 ug/kg, plasma KRN7000 after RGI-2001-003 iv 100 μg/kg weekly, Day 0, read-out: AUC0-4): 3000 ng·h/mL | Cmax (100 ug/kg, plasma KRN7000 after RGI-2001-003 iv 100 μg/kg weekly, Day 14): 570 ng/mL | AUC(0-t) (100 ug/kg, plasma KRN7000 after RGI-2001-003 iv 100 μg/kg weekly, Day 14, read-out: AUC0-4): 1890 ng·h/mL
Structure (SMILES): CCCCCCCCCCCCCCCCCCCCCCCCCC(=O)N[C@@H](CO[C@H]1OC(CO)[C@H](O)C(O)C1O)[C@H](O)[C@H](O)CCCCCCCCCCCCCC (stereo partly drawn) [KRN7000, (2S,3S,4R)-1-o-(α-D-galactopyranosyl)-2-(N-hexacosanoylamino)-1,3,4-octadecanetriol]
